Measurements as given in patent US11001591B2, “TRAF 6 inhibitors” (HELMHOLTZ ZENTRUM MUENCHEN—DEUTSCHES FORSCHUNGSZENTRUM FÜR …, priority 2016, dated 2021).

Assays:
TRAF6-UBC13 interaction = target: T1, TRAF6-UBC13 interaction (Homo sapiens, UniProt Q9Y4K3); experiment: ALPHAScreen TRAF6WTStrepII-Ubc13FH interaction assay; assay type: binding; conditions: inhibition of TRAF6-UBC13 interaction
T1 construct: RING-Zincfinger1 (RZ1) domain (residues 50-159) of TRAF6 wildtype; made in house; host or cells: E. coli BL21 codon plus RIPL
T1 sequence (Q9Y4K3 50-159): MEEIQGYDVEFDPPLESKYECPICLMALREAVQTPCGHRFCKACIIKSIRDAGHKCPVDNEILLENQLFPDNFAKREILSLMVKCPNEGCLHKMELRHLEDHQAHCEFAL

TRAF6 RZ1 protein = target: T2, TRAF6 RZ1 protein (Homo sapiens, UniProt Q9Y4K3); experiment: 2D-NMR (SOFAST-HMQC) binding; conditions: protein:compound 1:5
T2 construct: RING-Zincfinger1 (RZ1) domain (residues 50-159) of TRAF6 wildtype; GST (N, cleaved yes); made in house; host or cells: E. coli BL21 codon plus RIPL
Protocol: To determine whether the inhibitory compounds directly bind to TRAF6 rather than to Ubc13, 2D-NMR experiments were conducted. Untagged ^15N-labeled TRAF6 RZ1 protein (c=120 μM) and compound (c=20 mM) were incubated at a ratio of 1:5 in a 3 mm NMR tube for 10 minutes before spectra acquisition. To observe chemical shift perturbations upon compound addition, two-dimensional SOFAST-HMQC spectra were acquired. All measurements were performed using the Bruker Avance 600 MHz spectrometer.

[1] = tested on: 24 different Ubiquitin reaction cascades; experiment: Ubiquitin Profiler (Eurofins); assay type: biochemical; conditions: 30 μM compound
Protocol: C25-140 was sent to Eurofins Pharma Discovery Services UK to perform a Single Point Ubiquitin Profiler testing of C25-140 effect at a concentration of 30 μM on 24 different Ubiquitin reaction cascades employing distinct combinations of E2, E3 and substrate. Each reaction was measured in duplicates. Cascade activity is expressed as a percentage of the mean cascade activity in the positive control samples. The positive control value is considered to be 100%, and all test samples are referred to this value.

Microsomal stability = assay type: in vitro ADME
Protocol: All ADME (plasma stability, plasma protein binding, microsomal stability, Log D, Caco-2 assay, CYP450 inhibition and hERG predictor assay) as well as pharmacokinetic studies (Tmax, Cmax, AUC0-240 min, Mean Residence Time, Elimination half life, Elimination rate constant, Volume of Distribution and Clearance) of C25-140 (compound 3) were conducted by Bienta Enamine Biology Services of Bienta/Enamine Ltd.

[2] = tested on: HBL1 (ABC-DLBCL-MYD88 L265P); experiment: Cell viability in DLBCL, HBL1; assay type: cell-based; conditions: 30 μM added at day 0, 4 and 8; 9 days
Protocol: (§1) To determine the effects of C25-140 on MYD88-dependent ABC-DLBCL, we chose the HBL1 (ABC-DLBCL-MYD88 L265P), U2932 (ABC DLBCL-MYD88 wt) and BJAB (GCB DLBCL) cell lines. 1×10^6 cells of each cell line was seeded in 5 ml and treated with 30 μM compound C25-140 (compound 3) or DMSO. The entire experiment was carried out for 9 days. Every day 500 μl were taken and viable cell number was acquired using the ViCEII cell counter (Beckmann Coulter). At days 4 and 8 of the experiment the volume was again adjusted to 5 ml and samples were supplemented with 30 μM compound C25-140 or DMSO. This process was necessary to ensure linear proliferation of DMSO treated cells. All curves of C25-140 treated samples were referred to the corresponding DMSO treated controls.

[3] = tested on: U2932 (ABC DLBCL-MYD88 wt); experiment: Cell viability in DLBCL, U2932; assay type: cell-based; conditions: 30 μM added at day 0, 4 and 8; 9 days
Protocol: as §1

With `Cc1nn(-c2ccc3nnc(C)n3n2)c(C)c1CCC(=O)N1CCC(Cc2ccccc2)CC1` [Compound 3, 1-(4-benzylpiperidin-1-yl)-3-(3,5-dimethyl-1-(3-methyl-[1,2,4]triazolo[4,3-b]pyridazin-6-yl)-1H-pyrazol-4-yl)propan-1-one] the IC50 (TRAF6-UBC13 interaction) was no more than 3 µM, the “direct binding to TRAF6 (NMR peak shifts)” value (TRAF6 RZ1 protein) was “directly binds” and the “inhibition of ubiquitination cascades, Ubiquitin Profiler panel” value [1] was “None of the reactions is considerably inhibited”. The microsomal stability (Microsomal stability) was “stable”, the “viability (cell count)” value [2] was “significantly reduced” and the “viability (cell count)” value [3] was “only slightly affected”.
